{"source": "patent US9808527B2", "about": "“Methods and compositions for treating HIV infections” (priority 2006, dated 2017)", "data": [{"smiles": "CC(C)CN(C[C@@H](O)[C@H](Cc1ccccc1)NC(=O)OC1CO[C@H]2OCCC12)S(=O)(=O)c1cccc(O)c1", "note": "(stereo partly shown)", "values": [{"measurement": "melting point", "value": "90 to 93", "unit": "°C"}]}]}
